Test results taken from patent publication US20250145571A1, “AMINO ACID PRODRUGS OF NICORANDIL” (Unicycive Therapeutics, Inc., priority 2023, published 2025).
Where two headings read alike, the source gives them in different places.

Assays:
[1] = Plasma stability, rat plasma; type: in vitro ADME; conditions: for half-life at 1 µM / % PCR (at 60 minutes): 37° C., 1 μM; for % PCR (at 60 minutes): parent compound remaining at 60 minutes
Experimental: (§1) Each test compound and assay control (final concentration of 1 μM) were incubated with human plasma or rat plasma at 37° C. for 0.5, 5, 30 and 60 minutes. The reaction was quenched with ice-cold acetonitrile containing internal standard (cetirizine/tolbutamide/telmisartan) following incubation.

[2] = Intestinal microsomal stability, rat; type: in vitro ADME; conditions: for half-life at 1 µM / microsomal CLint at 1 µM: rat intestinal microsomes 1 mg/mL protein, NADPH, 37° C.; for microsomal CLint at 1 µM: read-out: CLint (μL/min/mg protein)
Experimental: (§2) Each test compound and assay control (final concentration of […]) were incubated with intestinal microsomes (final protein concentration of 1 mg/mL) from rats, dogs or humans at 37° C. in the presence of NADPH for 0.5, 5, 10, 15, 30 and 60 minutes. The reaction was terminated by adding ice-cold acetonitrile containing internal standard (cetirizine/tolbutamide/telmisartan) at each time point following incubation. Samples were then centrifuged at 4000 rpm for 10 minutes and the supernatant was analyzed by LC-MS/MS. The in vitro half-life (t1/2) and intrinsic clearance (CLint) were calculated for the test compounds and the assay control.

[3] = Plasma stability, human plasma; type: in vitro ADME; conditions: for half-life at 1 µM / % PCR (at 60 minutes): 37° C., 1 μM; for % PCR (at 60 minutes): parent compound remaining at 60 minutes
Experimental: as §1

[4] = Liver microsomal stability, rat; type: in vitro ADME; conditions: for Hepatic Extraction Ratio / Predicted Hepatic CL: rat liver microsomes 0.5 mg/mL, 1 μM, NADPH
Experimental: (§3) Each test compound and assay control (final concentration of 1 μM) were incubated with liver microsomes (final protein concentration of 0.5 mg/mL) from rats, dogs or humans at 37° C. in the presence of NADPH for 0.5, 5, 10, 15, 30 and 60 min. The reaction was terminated by adding ice-cold acetonitrile containing internal standard at each time point following incubation. The samples were then centrifuged at 4000 rpm for 10 minutes and the supernatant was analyzed by LC-MS/MS. The predicted hepatic clearance and the hepatic extraction ratio were calculated for the test compounds and the assay control.

[5] = Intestinal microsomal stability, dog; type: in vitro ADME; conditions: for half-life at 1 µM / microsomal CLint at 1 µM: dog intestinal microsomes 1 mg/mL protein, NADPH, 37° C.; for microsomal CLint at 1 µM: read-out: CLint (μL/min/mg protein)
Experimental: as §2

[6] = Liver microsomal stability, dog; type: in vitro ADME; conditions: for Hepatic Extraction Ratio / Predicted Hepatic CL: dog liver microsomes 0.5 mg/mL, 1 μM, NADPH
Experimental: as §3

[7] = Liver microsomal stability, human; type: in vitro ADME; conditions: for Hepatic Extraction Ratio / Predicted Hepatic CL: human liver microsomes 0.5 mg/mL, 1 μM, NADPH
Experimental: as §3

[8] = Intestinal microsomal stability, human; type: in vitro ADME; conditions: for half-life at 1 µM / microsomal CLint at 1 µM: human intestinal microsomes 1 mg/mL protein, NADPH, 37° C.; for microsomal CLint at 1 µM: read-out: CLint (μL/min/mg protein)
Experimental: as §2

[9] = rat; for AUClast / Cmax / F (%) / Tmax / t1/2 / AUClast (ng * h/mL) / Cmax (ng/mL) / Median Tmax: male, Sprague-Dawley; for AUClast / Cmax / F (%) / Tmax / t1/2 / AUClast (ng * h/mL) / Cmax (ng/mL) / Median Tmax / increase in AUC from 3 mg/kg to 14 mg/kg (in words) / release of nicorandil in vivo (in words): po
[10] = Pharmacokinetic study in rats, single oral dose; conditions: rat, 0.25% sodium CMC
[11] = compared to nitrate salt of compound 8

CCCCCCCCCCCC(=O)OC[n+]1cccc(C(=O)NCCO[N+](=O)[O-])c1.[Cl-] [Compound 10]
half-life at 1 µM [1]: 1.59 min | % PCR (at 60 minutes) [1]: 0% | release in plasma (in words) [1, 11]: rapidly released | half-life at 1 µM [2]: 26 min | microsomal CLint at 1 µM [2]: 27 µL/min/mg | clearance in intestinal microsomes (in words) ([2]; rat intestinal microsomes, compared to nitrate salt of compound 8 and compounds 11 and 13): high clearance | half-life at 1 µM [3]: 1.23 min | % PCR (at 60 minutes) [3]: 0% | release in plasma (in words) [3, 11]: rapidly released | Hepatic Extraction Ratio [4]: 0.84 | Predicted Hepatic CL [4]: 46 mL/min/kg | stability in liver microsomes (in words) ([4]; rat liver microsomes, compared to nitrate salt of compound 8): unstable | half-life at 1 µM [5]: 47 min | microsomal CLint at 1 µM [5]: 15 µL/min/mg | clearance in intestinal microsomes (in words) ([5]; dog intestinal microsomes, compared to nitrate salt of compound 8 and compounds 11 and 13): high clearance | Hepatic Extraction Ratio [6]: 1.0 | Predicted Hepatic CL [6]: 4 mL/min/kg | stability in liver microsomes (in words) ([6]; dog liver microsomes, compared to nitrate salt of compound 8): unstable | Hepatic Extraction Ratio [7]: 0.90 | Predicted Hepatic CL [7]: 19 mL/min/kg | stability in liver microsomes (in words) ([7]; human liver microsomes, compared to nitrate salt of compound 8): unstable | half-life at 1 µM [8]: 24 min | microsomal CLint at 1 µM [8]: 29 µL/min/mg | clearance in intestinal microsomes (in words) ([8]; human intestinal microsomes, compared to nitrate salt of compound 8 and compounds 11 and 13): high clearance | AUClast ([9]; in vivo, 3 mg/kg): 5513 ng·h/mL | Cmax ([9]; in vivo, 3 mg/kg): 2226 ng/mL | F (%) ([9]; in vivo, 3 mg/kg): 67% | Tmax ([9]; in vivo, 3 mg/kg): 30 min | t1/2 ([9]; in vivo, 3 mg/kg): 244 min | AUClast (ng * h/mL) ([9]; in vivo, 3 mg/kg, pH 4.5): 26,838 ng * h/mL | Cmax (ng/mL) ([9]; in vivo, 3 mg/kg, pH 4.5): 12,446 ng/mL | Median Tmax ([9]; in vivo, 3 mg/kg, pH 4.5): 15 min | AUClast (ng * h/mL) ([9]; in vivo, 14 mg/kg): 36,526 ng * h/mL | Cmax ([9]; in vivo, 14 mg/kg): 6297 ng/mL | F (%) ([9]; in vivo, 14 mg/kg): 97% | Tmax ([9]; in vivo, 14 mg/kg): 240 min | t1/2 ([9]; in vivo, 14 mg/kg): 164 min | oral bioavailability of nicorandil after oral dosing (in words) ([9]; in vivo): high | increase in AUC from 3 mg/kg to 14 mg/kg (in words) ([9]; in vivo): more than dose proportional | release of nicorandil in vivo (in words) [9]: release nicorandil in vivo

CCC(C)(C)C(=O)OC[n+]1cccc(C(=O)NCCO[N+](=O)[O-])c1.[Cl-] [Compound 11]
half-life at 1 µM [2]: > 60 min | microsomal CLint at 1 µM [2]: 8 µL/min/mg | half-life at 1 µM [5]: > 60 min | microsomal CLint at 1 µM [5]: 9 µL/min/mg | half-life at 1 µM [8]: > 60 min | microsomal CLint at 1 µM [8]: < 6 µL/min/mg | AUClast ([9]; in vivo, 3 mg/kg): 2289 ng·h/mL | Cmax ([9]; in vivo, 3 mg/kg): 1171 ng/mL | F (%) ([9]; in vivo, 3 mg/kg): 28% | Tmax ([9]; in vivo, 3 mg/kg): 15 min | AUClast (ng * h/mL) ([9]; in vivo, 3 mg/kg, pH 4.5): 22,632 ng * h/mL | Cmax (ng/mL) ([9]; in vivo, 3 mg/kg, pH 4.5): 15,223 ng/mL | Median Tmax ([9]; in vivo, 3 mg/kg, pH 4.5): 15 min | AUClast ([9]; in vivo, 14 mg/kg): 27422 ng·h/mL | Cmax ([9]; in vivo, 14 mg/kg): 6245 ng/mL | F (%) ([9]; in vivo, 14 mg/kg): 72% | Tmax ([9]; in vivo, 14 mg/kg): 15 min | increase in AUC from 3 mg/kg to 14 mg/kg (in words) ([9]; in vivo): more than dose proportional | release of nicorandil in vivo (in words) [9]: release nicorandil in vivo

Cc1oc(=O)oc1C[n+]1cccc(C(=O)NCCO[N+](=O)[O-])c1.[Cl-] [Compound 12]
AUClast ([9]; in vivo, 3 mg/kg, pH 4.5): 8893 ng·h/mL | Cmax ([9]; in vivo, 3 mg/kg, pH 4.5): 4065 ng/mL | Median Tmax ([9]; in vivo, 3 mg/kg, pH 4.5): 30 min

O=C(NCCO[N+](=O)[O-])c1ccc[n+](COC(=O)N2CCCC2C(=O)O)c1.[Cl-] (stereo not drawn) [Compound 13]
half-life at 1 µM [2]: > 60 min | microsomal CLint at 1 µM [2]: < 6 µL/min/mg | half-life at 1 µM [5]: > 60 min | microsomal CLint at 1 µM [5]: < 6 µL/min/mg | half-life at 1 µM [8]: > 60 min | microsomal CLint at 1 µM [8]: < 6 µL/min/mg

CCOC(=O)[C@H](CCc1ccccc1)N[C@@H](C)C(=O)N1CCC[C@H]1C(=O)O [Enalapril]
half-life at 1 µM [1]: 18.9 min | % PCR (at 60 minutes) [1]: 11.2%

O=C(NCCO[N+](=O)[O-])c1cccnc1 [Nicorandil]
half-life at 1 µM [1]: > 60 min | % PCR (at 60 minutes) [1]: 114% | half-life at 1 µM [3]: > 60 min | % PCR (at 60 minutes) [3]: 109%

CC(C)[N+](C)(CCOC(=O)C1c2ccccc2Oc2ccccc21)C(C)C [Propantheline Bromide]
half-life at 1 µM [3]: 21.3 min | % PCR (at 60 minutes) [3]: 9.2%

C[C@H](NC(=O)OC[n+]1cccc(C(=O)NCCO[N+](=O)[O-])c1)C1CCCCC1.O=[N+]([O-])[O-] [reference compound]
half-life at 1 µM [1]: 38.2 min | % PCR (at 60 minutes) [1]: 36.2% | half-life at 1 µM [2]: > 60 min | microsomal CLint at 1 µM [2]: < 6 µL/min/mg | half-life at 1 µM [3]: 31.2 min | % PCR (at 60 minutes) [3]: 28.7% | release of nicorandil in vivo (in words) [10]: release nicorandil in vivo | Hepatic Extraction Ratio [4]: > 0.89 | Predicted Hepatic CL [4]: > 49 mL/min/kg | half-life at 1 µM [5]: > 60 min | microsomal CLint at 1 µM [5]: < 6 µL/min/mg | Hepatic Extraction Ratio [6]: 0.84 | Predicted Hepatic CL [6]: 26 mL/min/kg | Hepatic Extraction Ratio [7]: 0.71 | Predicted Hepatic CL [7]: 15 mL/min/kg | half-life at 1 µM [8]: > 60 min | microsomal CLint at 1 µM [8]: 9 µL/min/mg
